Data from patent US20100298251A1, “WOUND-HEALING AGENT CONTAINING MOMORDICAE SEMEN EXTRACT” (priority 2007, published 2010).
Where “and” joins values, the source holds several entries; their conditions need not be identical. Equal entries are not always repeated.

Test system: wounded mouse skin
Test: Wound-healing effect in wounded skin mouse model (topical, once daily for 10 days)
Format: in vivo
[1] = group mean (X, 5 mice), topical x10, dose/mouse: extract 50 μg, fraction 3 10 μg, saponin I 5 μg, CGS-21680 10 μg
[2] = group mean (X, 5 mice), topical x10, dose/mouse: extract 50 μg, fraction 3 10 μg, saponin I 5 μg, CGS-21680 10 μg, * P<0.05 vs vehicle
[3] = individual mouse (N 1-5), same doses as group means

Description: Thus prepared test materials(20 μl) were topically applied on the wounded mouse skin, once daily for 10 consecutive days.
As a positive control drug, CGS-21680 (Tocris, USA) was prepared same as the above, and topically administered at a dosage of 10 μg/20 μl, once daily for 10 consecutive days.
Twenty-five male mice of CD-1 origin having 24 g±2 g of body weight were divided into 5 groups. The mice were put into separate cages. After anesthesia with hexobarbital (90 mg/kg, IP), the furs on the shoulders and the backs of the mice were shaved. A portion of skin including a muscle layer beneath the skin and a tissue attached thereof was cut off by using a sharp punch (ID12 mm). After being wounded on the skin, the mice were administered topically with the test materials of Momordicae semen extract, Momordica saponin I fraction 3, Momordica saponin I, and CGS-21680 were, respectively, at a concentration of 50, 10, 5, and 10 μg/20 μl, respectively, once daily for 10 consecutive days.
The area of wounded skin detected on a transparent plastic sheet was measured using Image-ProPlus (Media Cybernetics, Version 4.5.0.29) on day 1, 3, 5, 7, 9, and 11. […] The Dunnett's test was performed after one-way analysis of variance (one-way ANOVA), in order for the comparison between the treated group and the vehicle group at each measuring point. The difference was of statistical significance at P<0.05.

Row | Structure (SMILES) | Wound Closure Rate (%) Day 1 [1] [%] | Wound Closure Rate (%) Day 3 [2] | Wound Closure Rate (%) Day 5 [2] | Wound Closure Rate (%) Day 7 [2] | Wound Closure Rate (%) Day 9 [2] | Wound Closure Rate (%) Day 11 [2] | CT50 (time required for wound closure) [2] | Wound Closure Rate (%) Day 1 [3] [%] | Wound Closure Rate (%) Day 3 [3] | Wound Closure Rate (%) Day 5 [3] | Wound Closure Rate (%) Day 7 [3] | Wound Closure Rate (%) Day 9 [3] | Wound Closure Rate (%) Day 11 [3] | CT50 (time required for wound closure) [3] | wound-healing effect (overall statement on Table 2 and FIG. 1)
1 | CC1OC(OC2C(O)C(C(=O)O)OC(OC3CCC4(C)C(CCC5(C)C4CC=C4C6CC(C)(C)CCC6(C(=O)OC6OC(C)C(O)C(O)C6OC6OC(C)C(OC7OCC(O)C(O)C7O)C(OC7OC(CO)C(O)C(OC8OCC(O)C(O)C8O)C7O)C6O)CCC45C)C3(C)C=O)C2OC2OC(CO)C(O)C(O)C2O)C(O)C(O)C1O [Momordica Saponin I, 3-O-beta-D-Galactopyranosyl (1->2)-[alpha-L-rhamnopyranosyl (1->3)]-beta-D-glucuronopyranosido-28-O-beta-D-xylopyranosyl (1->3)-beta-D-glucopyranosyl (1->3)-[beta-D-xylopyranosyl (1->4)]-alpha-L-rhamnopyranosyl (1->2)-beta-D-fucopyranosyl gypsogenin] | 0.0 | *40.1% | *53.0% | *66.1% | *77.3% | *83.4% | *5.6 Days | 0.0 | 32.9% and 45.4% (2×) and 31.2% and 45.6% | 54.4% and 54.8% and 48.8% and 51.4% and 55.5% | 69.9% and 71.5% and 58.8% and 62.9% and 67.5% | 80.8% and 80.4% and 69.4% and 75.6% and 80.5% | 85.0% and 88.3% and 78.1% and 84.6% and 81.1% | 5.5 days and 5.2 days and 6.3 days and 5.6 days and 5.3 days | superior wound-healing effects
2 | CCNC(=O)[C@H]1O[C@@H](n2cnc3c(N)nc(NCCc4ccc(CCC(=O)O)cc4)nc32)[C@H](O)[C@@H]1O [CGS-21680, reference compound] | 0.0 | *45.1% | *58.5% | *68.5% | *79.0% | *83.1% | *5.2 Days | 0.0 | 46.7% (2×) and 36.0% and 54.4% and 41.6% | 62.5% and 59.3% and 55.5% and 59.6% and 55.8% | 71.2% and 66.5% and 62.7% and 71.8% and 70.3% | 79.9% and 74.7% and 79.7% and 81.6% and 79.2% | 85.6% and 84.6% and 78.3% and 82.9% and 84.3% | 5.0 days and 5.6 days and 5.2 days and 5.1 days and 5.3 days | 
